# Where two headings read alike, the source gives them in different places.
# Tests used:
# [1] = system: E. faecalis (Van S) ATCC 29212; test: MIC, E. faecalis; format: cell-based; details: Enterococcus faecalis, ATCC29212, read-out: MIC, E. faecalis (Van S) ATCC 29212
# [2] = system: E. faecalis (Van B) ATCC 51299; test: MIC, E. faecalis; format: cell-based, Enterococcus faecalis
# [3] = system: E. faecalis (Van A) MMX 486; test: MIC, E. faecalis; format: cell-based; details: Enterococcus faecalis, read-out: MIC, E. faecalis (Van A) MMX 486
# [4] = system: Van A phenotype VRE strain; details: cited from earlier work
compound,measurement,setting,value
"CC(=O)NC[C@H]1CN(c2ccc(N3CCOCC3)c(F)c2)C(=O)O1 [Linezolid, linezolid]",MIC,[1],2 µg/mL
same,MIC,"[2]; Enterococcus faecalis, ATCC51299, read-out: MIC, E. faecalis (Van B) ATCC 51299",2 µg/mL
same,MIC,[3],2 µg/mL
"CN[C@H](CC(C)C)C(=O)N[C@H]1C(=O)N[C@@H](CC(N)=O)C(=O)N[C@H]2C(=O)N[C@H]3C(=O)N[C@H](C(=O)N[C@H](C(=O)O)c4cc(O)cc(O)c4-c4cc3ccc4O)[C@H](O)c3ccc(c(Cl)c3)Oc3cc2cc(c3O[C@@H]2O[C@H](CO)[C@@H](O)[C@H](O)[C@H]2O[C@H]2C[C@](C)(N)[C@H](O)[C@H](C)O2)Oc2ccc(cc2Cl)[C@H]1O [Vancomycin, vancomycin]",MIC against Van A phenotype VRE strain,[4]; based on a literature report,512 µg/mL
G4-decanoyl vancomycin derivative [Compound 9b],times more active against a VRE strain (Van B phenotype),"[2]; fold improvement of MIC, compared with vancomycin",64 times
teicoplanin A2-2,MIC against Van A phenotype VRE strain,[4],128 µg/mL
